The record followed here is US20160137714A1 (Thrasos Innovation, Inc., priority 2014, published 2016).

“And” between values parts separate entries of the source, which are not always exact repeats. Equal entries are not always repeated. Where two headings read alike, the source gives them in different places. Positions of bridges follow the written chain, without caps; N, C: chain ends. Non-standard residues stand in square brackets, D forms with d. Residues, ends and D or L forms follow the SMILES beside them.

A short description of series [1]: Pharmacokinetics of GPR-405 given at 1 mg/kg sc in CD1 mice. The class given is in vivo, mouse. As to the method:
The study described herein involved single (mouse) or multiple (rat) blood collections after test article administration. Test articles are given by oral (PO), intravenous (IV), subcutaneous (SC) or intraperitoneal (IP) routes. All animals have a five day acclimatization period before dosing. Body weights are recorded prior to dosing. For mouse PK, 3 animals per group per time point are used (terminal bleed). For rats, multiple blood samplings per animal (adequately spaced in time) are taken. At the end of the study, all animals are euthanized by CO2 and final blood sample was collected via cardiac puncture.
Preparations are performed under a laminar flow hood using clean procedures. The formulations are kept at in a refrigerator set to maintain 4° C. before use. The dose volume for each animal is based on the most recent body weight measurement.
for PO administration, animal has either restricted access to food until the next day (12 h) before dosing or are allowed free access to food (depending on whether the PK will be done on fasted or fed animals). In all cases, animals has access to water ad libidum. PO dosing is done by gavage using a curved gavage needle (with rounded tip). All animals are observed for few seconds after injection to make sure there are no side effects. For IV administration, dosing (mice and rat) is done by the tail vein. Compound administration is done by slow (15-60 sec) bolus or by slow IV infusion (up to 1 h) using a calibrated syringe pump. For subcutaneous (dorsal region) and intraperitoneal injections, dosing is done with the appropriate needle and volume as per IACUC guidelines. GPR-405 was administered once by SC injection to each animal in the test group using a hypodermic needle attached to a syringe. No dose was administered to control animals.
Sampling is done via the tail, jugular or saphenous vein. Typical time for blood collection for PK are Pre, 5, 15, 30 minutes, 1 h, 2 h, 4 h, 8 h, 24 h. For mice, animals are terminated at each collection (cardiac puncture post-euthanasia). For rats, 200 μl are collected at each time point (max 3 time points per rat in 24 h). Plasma harvested from blood is mixed with 8.5% phosphoric acid (2% v/v of plasma). All plasma samples collected are stored in a freezer, set to maintain −80° C. until bioanalysis. At necropsy, tissues, organs and/or biological fluid are collected, as needed, for analysis. Urine collection is done using metabolic cages when required.
A stock solution of the test article is prepared at 250 μg/mL in DMSO. This solution is quantitatively added to blank mouse or rat plasma to generate a calibration curve. The linear range is from 0.25 to 250 ng/mL. A 175 μL aliquot of plasma is removed from each calibrant tube and processed using solid phase extraction (SPE). Study samples are first diluted with blank control mouse or rat plasma, and 175 μL is aliquoted for processing using SPE. An internal standard working solution (ISWS) is added to each calibrant and study sample (GPR-227 at 100 ng/mL in water). Plasma proteins are precipitated with 175 μL of methanol with 0.5% acetic acid (v/v). After centrifugation at 14,800 RPM for 10 minutes, a 300 μL aliquot of supernatant is diluted in water with 4% phosphoric acid (v/v). The entire diluted sample is extracted by SPE using a Waters Oasis HLB 96-well μElution plate. Samples are washed twice using a solution of acidified water (0.1% TFA, v/v) and 15% MeOH in water (v/v). Purified extracts are eluted into a 96-well collection plate using 40 μL of elution solvent. Standards and study samples are injected onto a Thermo Q-exactive LC-MS/MS system. Chromatographic separation is performed using a reversed-phase C18 HPLC column (Waters CSH C18, 50×2.1 mm, 2.5 μm). Analyte and internal standard are detected using the targeted selected ion monitoring (tSIM) scan mode. […]

A short description of series [2]: Pharmacokinetic studies of THR-123 and GPR-294 i.v. and s.c. (FIG. 13, FIGS. 5-8). In kind it is in vivo. To be noted: in vivo; s.c. versus i.v., FIG. 13; read-out: bioavailable by sub-cutaneous administration. As to the method:
A stock solution of THR-123 was prepared at 250 μg/mL in DMSO. This solution was quantitatively added to blank mouse plasma to generate a calibration curve. The linear range was from 0.25 to 250 ng/mL. A 175 μL aliquot of plasma from removed from each calibrant tube and processed using solid phase extraction (SPE). Study samples were first diluted with blank control mouse plasma, and 175 μL was aliquoted for processing using SPE. An internal standard working solution (ISWS) was added to each calibrant and study sample (GPR-227 at 100 ng/mL in water). Plasma proteins were precipitated with 175 μL of methanol with 0.5% acetic acid (v/v). After centrifugation at 14,800 RPM for 10 minutes, a 300 μL aliquot of supernatant was diluted in water with 4% phosphoric acid (v/v). The entire diluted sample was extracted by SPE using a Waters Oasis HLB 96-well μElution plate. Samples were washed twice using a solution of acidified water (0.1% TFA, v/v) and 15% MeOH in water (v/v). Purified extracts were eluted into a 96-well collection plate using 40 μL of elution solvent. Standards and study samples were injected onto a Thermo Q-exactive LC-MS/MS system. Chromatographic separation was performed using a reversed-phase C18 HPLC column (Waters CSH C18, 50×2.1 mm, 2.5 μm). Analyte and internal standard were detected using the targeted selected ion monitoring (tSIM) scan mode. Calibration curves were generated by using a weighted (1/concentration^2) linear regression of the peak area ratios (analyte/internal standard) versus the nominal concentration of the calibration standards. The concentration of the analyte in the study samples was determined by back-calculating the peak area ratios obtained using the linear regression and applying the appropriate dilution factors.
The study described herein involved single (mouse) or multiple (rat) blood collections after test article administration. Test articles are given by oral (PO), intravenous (IV), subcutaneous (SC) or intraperitoneal (IP) routes. All animals have a five day acclimatization period before dosing. Body weights are recorded prior to dosing. […]

Where [3] appears, read: mouse, in vivo, 1 mg/kg sc in CD1 mice.

The term Tmax denotes the time at which the peak concentration occurs. By AUC(0-inf) is commonly meant total exposure, with the tail of the curve extrapolated. High values mean high exposure, low ones low exposure. One may read the AUC(0-t) as exposure summed from dosing to a finite time, without extrapolation to infinity. Lower therefore signals less exposure. As usually defined, the Cmax is the peak of the concentration-time curve. One may read the MRT as a mean duration of stay, worked out from the concentration-time curve. In the case of `CC(C)C[C@@H]1NC(=O)[C@H](C(C)C)NC(=O)[C@H](CCC(N)=O)NC(=O)[C@H](CO)NC(=O)[C@H](CO)NC(=O)[C@H](CC(N)=O)NC(=O)[C@H](Cc2ccccc2)NC(=O)[C@H](Cc2ccc(O)cc2)NC(=O)[C@H](Cc2ccc(O)cc2)NC(=O)[C@@H](N)CSSC[C@@H](C(=O)N[C@@H](CCCCN)C(=O)N[C@@H](CCCNC(=N)N)C(=O)N[C@H](Cc2ccc(O)cc2)C(=O)N[C@@H](CCCNC(=N)N)C(=O)N[C@@H](CO)C(=O)O)NC1=O` [GPR-405, Cys-Tyr-Tyr-Phe-Asn-Ser-Ser-Gln-Val-Leu-Cys-Lys-Arg-(D)Tyr-Arg-Ser] (H-CYYFNSSQVLCKR[dY]RS-OH; disulfide 1-11), in series [1] (1 mg/kg sc in CD1 mice), the “AUMC(0-t)” value is 196073 ng*min^2/ml, the “CL*F” value turned out to be 3.83 mL/min, the “CL/kg*F” value was determined as 120 mL/min/kg and the KeI was found to be 0.04 min⁻¹. In addition, in series [1] (1 mg/kg sc in CD1 mice), the Tmax is 5 min, the “Vd*F” value is 172.28 mL and the Vss was 90.22 mL. Further, the “Terminal T1/2” value in series [1] (1 mg/kg sc in CD1 mice, based on terminal decay rate) came to 31.21 min. Besides, in series [1] (1 mg/kg sc in CD1 mice, log-linear fit of 30, 60, 240 min), the “K′ (terminal decay rate)” value amounted to 0.022 min⁻¹. Further, the “clearance compared with renal clearance” value in series [1] (1 mg/kg sc in CD1 mice, mouse GFR approximately 10 ml/min/kg) is reported as “about ten times greater than renal clearance”. The half-life in series [1] (mouse, in vivo, sc, 1 mg/kg, 1 mg/kg sc in CD1 mice, based on terminal decay rate, read-out: Terminal T1/2) is about 30 min. Also, the half-life in series [1] (mouse, in vivo, sc, 1 mg/kg, 1 mg/kg sc in CD1 mice, read-out: Biological T1/2 (overall half-life)) is about 16 min. In series [1] (mouse, in vivo, sc, 1 mg/kg, 1 mg/kg sc in CD1 mice, read-out: Tmax), the Tmax is under 5 min. For the same compound, in series [1] (setting [3]), the AUC(0-inf) was 142 ng·h/mL, the AUC(0-t) was 142 ng·h/mL, the Cmax was 504 ng/mL and the mean residence time MRT is 23.1 min. The same compound showed a bioavailability in series [1] (mouse, in vivo, sc, mice, preliminary data) of about 60%. The level at 5 min in series [1] (mouse, plasma, 1 mg/kg sc, CD1 mice, 5 min, read-out: Mean Concentration) turned out to be 504 ng/mL. Besides, the level at 0.25 h in series [1] (mouse, plasma, 1 mg/kg sc, CD1 mice, 15 min, read-out: Mean Concentration) was found to be 117 ng/mL. Also, the level at 0.5 h in series [1] (mouse, plasma, 1 mg/kg sc, CD1 mice, 30 min, read-out: Mean Concentration) was 68.8 ng/mL. In addition, the level at 1 h in series [1] (mouse, plasma, 1 mg/kg sc, CD1 mice, 60 min, read-out: Mean Concentration) came out at 15.9 ng/mL. In addition, the level at 4 h in series [1] (mouse, plasma, 1 mg/kg sc, CD1 mice, 240 min, read-out: Mean Concentration) stood at 0.4 ng/mL. In addition, the “Final Concentration (individual mouse)” value in series [1] (plasma, 1 mg/kg sc, CD1 mice, 5 min, 1 mg/kg) was 596.4 ng/ml and 411.9 ng/ml and 62.4 (outlier) ng/ml. In addition, the “Final Concentration (individual mouse)” value in series [1] (plasma, 1 mg/kg sc, CD1 mice, 15 min, 1 mg/kg) was 114.2 ng/mL and 118.3 ng/mL and 118.4 ng/mL. For the same compound, in series [1] (plasma, 1 mg/kg sc, CD1 mice, 30 min, 1 mg/kg), the “Final Concentration (individual mouse)” value was 49.0 ng/mL and 88.6 ng/mL. In addition, the “Final Concentration (individual mouse)” value in series [1] (plasma, 1 mg/kg sc, CD1 mice, 60 min, 1 mg/kg) was 23.0 ng/mL and 11.9 ng/mL and 12.8 ng/mL. Also, the “Final Concentration (individual mouse)” value in series [1] (plasma, 1 mg/kg sc, CD1 mice, 240 min) turned out to be 0.4 ng/mL.
Turning to `CC(C)C[C@@H]1NC(=O)[C@H](C(C)C)NC(=O)[C@H](CC(N)=O)NC(=O)[C@H](CO)NC(=O)[C@H](CO)NC(=O)[C@H](CC(=O)O)NC(=O)[C@H](CC(=O)O)NC(=O)[C@H](Cc2ccccc2)NC(=O)[C@H](Cc2ccc(O)cc2)NC(=O)[C@@H](N)CSSC[C@@H](C(=O)N[C@@H](CCCCN)C(=O)N[C@@H](CCCCN)C(=O)N[C@@H](Cc2ccc(O)cc2)C(=O)N[C@@H](CCCNC(=N)N)C(=O)N[C@@H](CO)C(=O)O)NC1=O` [THR-123, Cys-Tyr-Phe-Asp-Asp-Ser-Ser-Asn-Val-Leu-Cys-Lys-Lys-Tyr-Arg-Ser] (H-CYFDDSSNVLCKKYRS-OH; disulfide 1-11), the bioavailability in series [2] is 81%.
